System: human bone marrow-derived mesenchymal stem cells
Assay: Differentiation induction of human bone marrow-derived mesenchymal stem cells into adipocytes (oil red O staining, adiponectin ELISA, real-time PCR)
Type: cell-based
Details: for necessity of the component for inducing differentiation into adipocytes: component left out of the serum-free differentiation culture medium, 21 days, FIG. 4
Method: A serum-free control culture medium (Comparative Example 1) was produced by adding 5 μM of LPA, 1 mM of vitamin C, 100 μM of biotin, and 41.5 nM of progesterone to Dulbecco's modified Eagle's medium (DMEM) containing HEPES (concentration of 25 mM).
To HEPES-containing DMEM, at the final concentrations, 500 μM of isobutylmethylxanthine (IBMX), 1 μM of dexamethasone, 1 μM of insulin, and 1 μM of rosiglitazone were added to produce an adipocyte differentiation inducing culture medium.
To the above adipocyte differentiation inducing culture medium, 5 μM of LPA, 1 mM of vitamin C, 100 μM of biotin, and 41.5 nM of progesterone were added to produce a serum-free differentiation inducing culture medium according to the present invention (hereinafter referred to as serum-free differentiation culture medium: Example 1).
To each of HEPES-containing DMEM and the adipocyte differentiation inducing culture medium, 10% of fetal bovine serum (FBS) was added to produce a conventional culture medium (Comparative Example 2) and a conventional differentiation culture medium (Comparative Example 3).
Human bone marrow-derived mesenchymal stem cells (strain name: normal human mesenchymal stem cells (Cryo hMSC purchased from LONZA) were seeded in a culture container with a 48-hole culture plate at a cell density of 30,000 cells/cm^2. These culture media were replaced with respective fresh ones every three to four days to culture the cells at 37 degrees C. and 5% CO2 for 7 to 21 days, thereby inducing differentiation into adipocytes.
The adipocytes were confirmed by oil red 0 staining of lipid droplets accumulated in the cells. Additionally, the oil red O-stained cells were extracted with isopropanol to measure the quantity of lipid accumulated in the cells using an absorption spectrophotometer (wavelength of 492 nm). Then, the quantities of adiponectin secreted from the cells in the three days: Day 4 to Day 7, Day 11 to Day 14, and Day 18 to Day 21 of differentiation induction were confirmed using an adiponectin ELISA kit (Fujirebio Inc). Furthermore, the mRNA expressions of PPAR-gamma and adiponectin were confirmed by real-time PCR. The forward and reverse primers for PPRA-gamma used were […] (SEQ ID NO:1) and tcgcctttgctttggtcag (SEQ ID NO:2), respectively; the forward and reverse primers for adiponectin used were […] (SEQ ID NO:3) and […] (SEQ ID NO:4), respectively; and the forward and reverse primers for GAPDH used were […] (SEQ ID NO:5) and […] (SEQ ID NO:6), respectively.
As in Example 1, at the final concentrations, 500 μM of IBMX, 1 μM of dexamethasone, 1 μM of insulin, and 1 μM of rosiglitazone were added to HEPES-containing DMEM to produce an adipocyte differentiation inducing culture medium. To the adipocyte differentiation inducing basal medium, 5 μM of LPA, 1 mM of vitamin C, […], and 41.5 nM of progesterone were added to produce a serum-free differentiation culture medium according to the present invention (Example 2). On the other hand, for comparison, there were also prepared a culture medium without LPA alone (Comparative Example 4), a culture medium without vitamin C alone (Comparative Example 5), a culture medium without biotin alone (Comparative Example 6), and a culture medium without progesterone alone (Comparative Example 7).
To DMEM not containing HEPES, at the final concentrations, 500 μM of IBMX, 1 μM of dexamethasone, 1 μM of insulin, and 1 μM of rosiglitazone were added to produce an adipocyte differentiation inducing culture medium 2. To the adipocyte differentiation inducing basal medium 2, 5 μM of LPA, 1 mM of vitamin C, 100 μM of biotin, and 41.5 nM of progesterone were added to produce a serum-free differentiation culture medium 2 (Comparative Example 8).
As in Example 1, human bone marrow-derived mesenchymal stem cells were seeded in the wells of a 48-hole culture plate at the cell density of 30,000 cells/cm^2. […]

Row | Compound | necessity of the component for inducing differentiation into adipocytes | effect on the quantity of lipid droplets in adipocytes when added to the culture medium
1 | O=C(O)CCCC[C@@H]1SC[C@@H]2NC(=O)N[C@@H]21 [biotin] | necessary | 
2 | O=S(=O)(O)CCN1CCN(CCO)CC1 [HEPES, 2-[4-(2-hydroxyethyl)-1-piperazinyl]ethanesulfonic acid] | necessary | 
3 | CC(=O)[C@H]1CC[C@H]2[C@@H]3CCC4=CC(=O)CC[C@]4(C)[C@H]3CC[C@]12C [progesterone] | not essential | increasing the quantity of lipid droplets in adipocytes
4 | 1-oleoyl lysophosphatidic acid sodium [LPA] | necessary | 
5 | O=C1O[C@H]([C@@H](O)CO)C(O)=C1O [vitamin C] | necessary | 

— patent US8785199B2, “Culture medium and method for inducing differentiation into adipocytes” (Fujirebio, Inc, priority 2009, dated 2014)
